From US20260284208A1, “SYSTEM” (Oxford University Innovation Limited, priority 2023, published 2026)

Tested on: library of 8,380 IKZF3 degrons (ZF-eGFP/mCherry reporter) in Jurkat cells
Assay: Pooled library screen (FACS, NGS, limma voom LogFC of positive vs negative read counts)
Assay type: cell-based, human
Outline: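 Degron enrichment was scored by amplicon NGS of gDNA from GFP-low versus other mCherry+ cells, at >600× coverage across three independent transductions. Sorting followed 18 h exposure at 37 °C to thalidomide analog or DMSO, which set the gate; dead cells were excluded with DAPI. Single-copy integration used MOI <0.3.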

Q: Which results are given for `CN1CCN(c2ccc3c(c2)C(=O)N(C2CCC(=O)NC2=O)C3=O)CC1` (centres unmarked) [B08, 2-(2,6-dioxopiperidin-3-yl)-5-(4-methylpiperazin-1-yl)isoindoline-1,3-dione]?
A: B08_logFC (Degron-ID 115, SEQ ID NO 2354, 46F_47A_49E_50V_52G_53A_54S_55F_67L): 2.665; B08_logFC (Degron-ID 312, SEQ ID NO 2356, 46F_47C_49E_50I_52G_53A_54P_55F_67L): 2.662; B08_logFC (Degron-ID 313, SEQ ID NO 2359, 46F_47C_49E_50I_52G_53A_54Q_55F_67L): 2.659; B08_logFC (Degron-ID 316, SEQ ID NO 2364, 46F_47C_49E_50I_52G_53A_54T_55F_67L): 2.641; B08_logFC (Degron-ID 355, SEQ ID NO 2334, 46F_47C_49E_50V_52G_53A_54S_55F_67L): 2.718; B08_logFC (Degron-ID 432, SEQ ID NO 2346, 46F_47C_49P_50I_52G_53A_54P_55F_67L): 2.683; B08_logFC (Degron-ID 480, SEQ ID NO 2273, 46F_47D_49D_50I_52G_53A_54A_55F_67L): 2.887; B08_logFC (Degron-ID 495, SEQ ID NO 2327, 46F_47D_49D_50I_52G_53A_54S_55F_67L): 2.748; B08_logFC (Degron-ID 556, SEQ ID NO 2290, 46F_47D_49E_50I_52G_53A_54T_55F_67L): 2.821; B08_logFC (Degron-ID 557, SEQ ID NO 2336, 46F_47D_49E_50I_52G_53A_54V_55F_67L): 2.714; B08_logFC (Degron-ID 591, SEQ ID NO 2348, 46F_47D_49E_50V_52G_53A_54N_55F_67L): 2.678; B08_logFC (Degron-ID 593, SEQ ID NO 2355, 46F_47D_49E_50V_52G_53A_54Q_55F_67L): 2.664; B08_logFC (Degron-ID 600, SEQ ID NO 2284, 46F_47D_49N_50I_52G_53A_54A_55F_67L): 2.845; B08_logFC (Degron-ID 825, SEQ ID NO 2282, 46F_47E_49E_50V_52G_53A_54G_55F_67L): 2.853; B08_logFC (Degron-ID 852, SEQ ID NO 2326, 46F_47E_49N_50I_52G_53A_54P_55F_67L): 2.749; B08_logFC (Degron-ID 966, SEQ ID NO 2283, 46F_47F_49D_50I_52G_53A_54H_55F_67L): 2.85; B08_logFC (Degron-ID 1014, SEQ ID NO 2319, 46F_47F_49D_50V_52G_53A_54R_55F_67L): 2.759; B08_logFC (Degron-ID 1079, SEQ ID NO 2329, 46F_47F_49E_50V_52G_53A_54Y_55F_67L): 2.743; B08_logFC (Degron-ID 1091, SEQ ID NO 2265, 46F_47F_49N_50I_52G_53A_54N_55F_67L): 2.903; B08_logFC (Degron-ID 1095, SEQ ID NO 2275, 46F_47F_49N_50I_52G_53A_54S_55F_67L): 2.882; B08_logFC (Degron-ID 1096, SEQ ID NO 2340, 46F_47F_49N_50I_52G_53A_54T_55F_67L): 2.704; B08_logFC (Degron-ID 1146, SEQ ID NO 2305, 46F_47F_49P_50I_52G_53A_54H_55F_67L): 2.792; B08_logFC (Degron-ID 1147, SEQ ID NO 2343, 46F_47F_49P_50I_52G_53A_54I_55F_67L): 2.701; B08_logFC (Degron-ID 1149, SEQ ID NO 2361, 46F_47F_49P_50I_52G_53A_54L_55F_67L): 2.65; B08_logFC (Degron-ID 1154, SEQ ID NO 2333, 46F_47F_49P_50I_52G_53A_54R_55F_67L): 2.724; B08_logFC (Degron-ID 1159, SEQ ID NO 2293, 46F_47F_49P_50I_52G_53A_54Y_55F_67L): 2.817; B08_logFC (Degron-ID 1186, SEQ ID NO 2321, 46F_47F_49P_50V_52G_53A_54H_55F_67L): 2.754; B08_logFC (Degron-ID 1192, SEQ ID NO 2303, 46F_47F_49P_50V_52G_53A_54P_55F_67L): 2.797; B08_logFC (Degron-ID 1440, SEQ ID NO 2337, 46F_47H_49D_50I_52G_53A_54A_55F_67L): 2.712; B08_logFC (Degron-ID 1541, SEQ ID NO 2267, 46F_47H_49E_50V_52G_53A_54C_55F_67L): 2.901; B08_logFC (Degron-ID 1552, SEQ ID NO 2268, 46F_47H_49E_50V_52G_53A_54P_55F_67L): 2.901; B08_logFC (Degron-ID 1572, SEQ ID NO 2307, 46F_47H_49N_50I_52G_53A_54P_55F_67L): 2.781; B08_logFC (Degron-ID 1575, SEQ ID NO 2324, 46F_47H_49N_50I_52G_53A_54S_55F_67L): 2.75; B08_logFC (Degron-ID 1635, SEQ ID NO 2315, 46F_47H_49P_50I_52G_53A_54S_55F_67L): 2.766; B08_logFC (Degron-ID 1660, SEQ ID NO 2328, 46F_47H_49P_50V_52G_53A_54A_55F_67L): 2.746; B08_logFC (Degron-ID 1673, SEQ ID NO 2281, 46F_47H_49P_50V_52G_53A_54Q_55F_67L): 2.855; B08_logFC (Degron-ID 1812, SEQ ID NO 2277, 46F_47I_49N_50I_52G_53A_54P_55F_67L): 2.872; B08_logFC (Degron-ID 2412, SEQ ID NO 2342, 46F_47M_49D_50I_52G_53A_54P_55F_67L): 2.702; B08_logFC (Degron-ID 2832, SEQ ID NO 2294, 46F_47N_49P_50I_52G_53A_54P_55F_67L): 2.815; B08_logFC (Degron-ID 2940, SEQ ID NO 2314, 46F_47Q_49E_50I_52G_53A_54A_55F_67L): 2.768; B08_logFC (Degron-ID 2955, SEQ ID NO 2358, 46F_47Q_49E_50I_52G_53A_54S_55F_67L): 2.66; B08_logFC (Degron-ID 2957, SEQ ID NO 2350, 46F_47Q_49E_50I_52G_53A_54V_55F_67L): 2.675; B08_logFC (Degron-ID 2987, SEQ ID NO 2341, 46F_47Q_49E_50V_52G_53A_54I_55F_67L): 2.703; B08_logFC (Degron-ID 3012, SEQ ID NO 2271, 46F_47Q_49N_50I_52G_53A_54P_55F_67L): 2.893; B08_logFC (Degron-ID 3100, SEQ ID NO 2338, 46F_47Q_49P_50V_52G_53A_54A_55F_67L): 2.707; B08_logFC (Degron-ID 3172, SEQ ID NO 2291, 46F_47R_49D_50V_52G_53A_54P_55F_67L): 2.82; B08_logFC (Degron-ID 3252, SEQ ID NO 2349, 46F_47R_49N_50I_52G_53A_54P_55F_67L): 2.676; B08_logFC (Degron-ID 3360, SEQ ID NO 2289, 46F_47S_49D_50I_52G_53A_54A_55F_67L): 2.823; B08_logFC (Degron-ID 3421, SEQ ID NO 2287, 46F_47S_49E_50I_52G_53A_54C_55F_67L): 2.828; B08_logFC (Degron-ID 3433, SEQ ID NO 2323, 46F_47S_49E_50I_52G_53A_54Q_55F_67L): 2.75
